Patent publication US20020059032A1, “Rational selection of putative peptides from identified nucleotide or peptide sequences” (priority 1999, published 2002)
Where a SMILES comes first, the peptide text is derived from it.

Target: guinea pig brain membranes
Test: Binding test with guinea pig brain membranes
Conditions: tested on guinea pig brain membranes; read-out: IC50 = 100 μM
Procedure: Binding Assay Alternative Protocol by Skatron
The experimental conditions are identical for all the binding assay protocols except for the fact that: i) the volume R in operation is 200 μl; ii) the test carried out in 96-well Falcon plates iii) the reaction is directly stopped by filtration on filterMat (ref. 11734) Skatron and the radioactivity associated with the filtrate is evaluated: either directly with a γ counter for the peptides labelled with […]: or with a […] in the presence of 5 ml of scintillating liquid.
Membrane Preparations of Guinea Pig Brains and Binding Assay
The guinea pigs are sacrificed by rupturing their cervical vertibrae, decapitated, and the brains are removed very rapidly and placed into a sucrose-Tris-HCl buffer (0.32 M sucrose 5 mM, Tris-HCl, 0.1 g/l bacitracin) at 4° C. (about 10 ml of buffer per brain). The brains are then homogenized using a Potter device and the homogenate is placed in incubation for 30 minutes at 37° C. under agitation, then centrifuged twice for 35 minutes at 100,000×g at 4° C. The protein content of the membrane preparations is evaluated according to the Bradford method (BioRad, according to the manufacturers protocol).
Bonding of Labelled Agonists to the Guinea Pig Brain Membrane Preparation The membranes are placed in a buffer (50 mM of Tris-HCl, 5 mM of MgCl2 and 0.1 g/l of bacitracin) at the desired protein concentration (iodized CCK bond, 0.1 mg of protein/ml; iodized gastrin bond: 0.5 mg of proteins/ml). They are then incubated in the presence of a labelled ligand in a total volume of 500 μl (about 10 pM for the iodized CCK8, 20 pM for the iodized gastrin13), 50-80 minutes at 25° C., and in the presence or absence of cold agonists. The reaction is stopped with 3 ml of additional BSA buffer (20 g/l) at 4° C., the tubes are centrifuged at 10,000×g, the supernatant is drawn off and the radioactivity associated with the precipitate is evaluated with a γ counter.

| IC50 [nM] | SMILES |
| --- | --- |
| 7000 | CC[C@H](C)[C@H](NC(=O)[C@H](C)NC(=O)[C@H](C)NC(=O)[C@@H](NC(=O)[C@H](CO)NC(=O)[C@H](C)NC(=O)[C@H](Cc1ccccc1)NC(=O)[C@H](Cc1ccc(O)cc1)NC(=O)[C@H](CCC(N)=O)NC(=O)[C@@H](NC(=O)[C@@H](N)C(C)C)[C@@H](C)CC)[C@@H](C)CC)C(=O)NCC(=O)N[C@@H](CC(=O)O)C(=O)N[C@@H](CCCNC(=N)N)C(N)=O [Example 52, H-VIQYFASIAAIGDR-NH2] (H-VIQYFASIAAIGDR-NH2) |
| 730 | CC[C@H](C)[C@H](NC(=O)[C@H](C)NC(=O)[C@@H](NC(=O)[C@H](CCC(=O)O)NC(=O)[C@H](CCC(=O)O)NC(=O)[C@@H](NC(=O)CNC(=O)[C@H](Cc1ccccc1)NC(=O)[C@@H](NC(=O)[C@H](CC(=O)O)NC(=O)[C@@H](N)[C@@H](C)O)[C@@H](C)CC)C(C)C)[C@@H](C)O)C(N)=O [Example 56, H-TDIFGVEETAI-NH2] (H-TDIFGVEETAI-NH2) |
| 410 | CC(C)[C@H](NC(=O)[C@H](C)NC(=O)[C@H](CCCCN)NC(=O)[C@H](C)NC(=O)[C@@H]1CCCN1C(=O)[C@@H](NC(=O)[C@@H](NC(=O)[C@@H](N)[C@@H](C)O)C(C)C)[C@@H](C)O)C(=O)N[C@H](C(=O)N[C@H](C(=O)N1CCC[C@H]1C(N)=O)[C@@H](C)O)[C@@H](C)O [Example 59, H-TVTPAKAVTTP-NH2] (H-TVTPAKAVTTP-NH2) |
| 1110 | CC[C@H](C)[C@H](NC(=O)[C@H](CCCCN)NC(=O)[C@H](Cc1ccccc1)NC(=O)[C@H](CCC(N)=O)NC(=O)[C@H](C)NC(=O)[C@H](Cc1c[nH]c2ccccc12)NC(=O)[C@@H](N)CCC(N)=O)C(=O)N[C@@H](CCC(N)=O)C(=O)N[C@@H](Cc1c[nH]c2ccccc12)C(=O)N[C@@H](CC(N)=O)C(=O)N[C@@H](CCC(N)=O)C(=O)N[C@@H](CCCNC(=N)N)C(=O)N[C@@H](Cc1c[nH]c2ccccc12)C(N)=O [Example 61, H-QWAQFKIQWNQRW-NH2] (H-QWAQFKIQWNQRW-NH2) |

More lines, now with the values behind:

| SMILES | IC50 [nM] |
| --- | --- |
| CC(C)[C@H](NC(=O)[C@H](C)NC(=O)[C@@H](NC(=O)[C@H](Cc1c[nH]c2ccccc12)NC(=O)[C@@H]1CCCN1)[C@@H](C)O)C(=O)N[C@@H](CC(=O)O)C(=O)N[C@H](C(=O)N[C@@H](CO)C(=O)N[C@H](C(=O)N[C@@H](CC(=O)O)C(N)=O)C(C)C)[C@@H](C)O [Example 51, H-PWTAVDTSVD-NH2] (H-PWTAVDTSVD-NH2) | 140 |
| CC(C)C[C@H](NC(=O)[C@@H](N)CCC(N)=O)C(=O)N[C@@H](Cc1c[nH]c2ccccc12)C(=O)N[C@@H](CC(=O)O)C(=O)N[C@H](C(=O)N[C@@H](C)C(=O)N[C@@H](Cc1c[nH]cn1)C(=O)N[C@@H](CO)C(=O)N[C@H](C(=O)N[C@@H](CCCCN)C(=O)N[C@@H](CCC(=O)O)C(=O)N[C@@H](CCCCN)C(=O)N[C@@H](Cc1ccccc1)C(N)=O)C(C)C)C(C)C [Example 54, H-QLWDVAHSVKEKF-NH2] (H-QLWDVAHSVKEKF-NH2) | 300 |
| CC(C)[C@H](NC(=O)[C@H](C)NC(=O)[C@@H](NC(=O)[C@@H](NC(=O)[C@H](C)NC(=O)[C@@H](NC(=O)[C@@H](N)CCC(N)=O)[C@@H](C)O)C(C)C)[C@@H](C)O)C(=O)N[C@@H](CCC(=O)O)C(=O)N[C@@H](CCCCN)C(=O)N1CCC[C@H]1C(=O)N[C@@H](C)C(=O)N[C@@H](CC(=O)O)C(=O)N[C@@H](CCCCN)C(N)=O [Example 57, H-QTAVTAVEKPADK-NH2] (H-QTAVTAVEKPADK-NH2) | 60 |
| CSCC[C@H](NC(=O)[C@H](C)NC(=O)[C@@H](NC(=O)[C@@H](N)CCC(=O)O)C(C)C)C(=O)N[C@@H](CC(=O)O)C(=O)N[C@@H](CC(=O)O)C(=O)N[C@@H](Cc1c[nH]cn1)C(=O)N[C@@H](CCCCN)C(=O)N[C@@H](CC(C)C)C(=O)N[C@@H](CO)C(=O)N[C@@H](CC(C)C)C(=O)N[C@@H](CC(=O)O)C(=O)N[C@@H](CCC(=O)O)C(=O)N[C@@H](CC(C)C)C(N)=O [Example 58, H-EVAMDDHKLSLDEL-NH2] (H-EVAMDDHKLSLDEL-NH2) | 860 |
